≈ marks a conversion by molar mass, not a printed value.
How the values were obtained:
Nakaseomyces glabratus [1] = assay: Antifungal activity against Candida glabrata MTCC 3019 assessed as inhibition of fungal growth incubated for 24 hrs by agar well diffusion method; assay type: functional, organism-based; details: MTCC 3019, 24 h
Candida albicans = assay: Antifungal activity against Candida albicans assessed as inhibition of fungal growth; assay type: functional, organism-based
Rhizopus arrhizus = assay: Antifungal activity against Rhizopus arrhizus assessed as fungal growth inhibition; assay type: functional, organism-based
Cryptococcus neoformans = assay: […] activity against Cryptococcus neoformans assessed as inhibition of […]; assay type: functional, organism-based
Nakaseomyces glabratus [2] = assay: Antifungal activity against Candida glabrata ATCC 90030 assessed as inhibition of microbial growth incubated for 24 hrs by broth microdilution method; assay type: functional, organism-based; details: ATCC 90030, 24 h
Aspergillus fumigatus = assay: Antifungal activity against Aspergillus fumigatus ATCC 13073 strain assessed as […] growth inhibition; assay type: functional, organism-based
Aspergillus flavus = assay: Antifungal activity against Aspergillus flavus assessed as inhibition of fungal growth; assay type: functional, organism-based
Fusarium oxysporum = assay: Antifungal activity against Fusarium oxysporum assessed as inhibition of fungal growth; assay type: functional, organism-based
[Candida] auris = Antifungal activity against Candida auris assessed as inhibition of fungal growth; assay type: functional, organism-based; details: Candidozyma auris
[3] = test system: Mycobacterium tuberculosis; assay: Antimycobacterial activity against Mycobacterium tuberculosis HN878 assessed as inhibition of mycobacterial growth incubated for 5 days; assay type: functional; details: HN878, 120 h, time 5 day

| SMILES | IC50 (Nakaseomyces glabratus [1]) [µg/mL] | IC50 (Candida albicans) [µg/mL] | IC50 (Rhizopus arrhizus) [µg/mL] | IC50 (Cryptococcus neoformans) [µg/mL] | IC50 (Nakaseomyces glabratus [2]) [µg/mL] | IC50 (Aspergillus fumigatus) [µg/mL] | IC50 (Aspergillus flavus) [µg/mL] | IC50 (Fusarium oxysporum) [µg/mL] | IC50 ([Candida] auris) [µg/mL] | MIC99 [3] [µM] |
| --- | --- | --- | --- | --- | --- | --- | --- | --- | --- | --- |
| CN(C)c1ccc(/C=C/c2ccc(C(=O)Nc3cc(C(=O)Nc4cc(C(=O)NCCC(=N)N)n(C)c4)n(C)c3)cn2)cc1 | 0.8 (≈ 1.38 µM) | 0.8 (≈ 1.38 µM) | 0.8 (≈ 1.38 µM) | 0.8 (≈ 1.38 µM) | 0.8 | 0.8 (≈ 1.38 µM) | 0.8 (≈ 1.38 µM) | 0.8 (≈ 1.38 µM) | 0.8 (≈ 1.38 µM) | – |
| Cn1cc(NC(=O)c2cc(NC(=O)c3ccc(/C=C/c4ccc(C(F)(F)F)cc4)cc3)cn2C)cc1C(=O)NCCC(=N)N | – | – | – | – | – | – | – | – | – | 1.56 (≈ 0.945 µg/mL) |

Reference: ChEMBL document CHEMBL5376023, “The allure of targets for novel drugs” (RSC Med Chem, 2024)
